A short description of assay [1]: CO2 gas bubbled through phosphido-borane salt in THF, NMR analysis. To be noted: CO2 at 1 atm, room temperature. As for the experimental part:
Here 0.2218 g of the resulting phosphido-borane was dissolved in 3 ml of tetrahydrofuran (THF) in a 10 ml valve. Here 2 ml of THF was used to dissolve 0.1856 g of lithium bis(trimethylsilyl)amide (LiHMDS). The solution of LiHMDS was added drop wise to the solution of Li[Ph2PBH3] to minimize side reactions.
CO2 gas was then bubbled through lithiated anionic phosphido-borane salt at 1 atm and room temperature for about 10 mins to saturate it with CO2.
A typical one pot procedure for preparing the CO2 adducts was adding a solution of Ph2PHBH3 (5.314 mmol, in 4 ml of THF) to solution of MHMDs (5.314 mmol, in 4 ml of THF) dropwisely. An aliquot of the resulting was analyzed with the nmr to confirm the complete formation of M(Ph2PBH3) salt. The bulk solution was then saturated with CO2 gas under standard atmospheric pressure and temperature. The product was then crushed out with hexanes resulting in a whitish precipitate. Yield 98.5%

Assay [2] can be described thus: DFT transition state barrier for CO2 binding. To be noted: Li+ coordinated to a CO2 oxygen and the hydrides of BH3−. As for the experimental part:
(§1) All Density Functional Theory calculations were performed using the Jaguar v10.9 software from Schrodinger Inc. All calculations utilized the M06-2X meta-GGA functional with the D3 empirical correction for London Dispersion forces.^21, 22
(§2) All atoms were described by the 6-311G**++ Pople basis set,^23 augmented with polarization and diffuse functions.
(§3) All calculations included a continuum solvent treatment described by the Polarizable Continuum Model (CPCM).^24
(§4) Unless otherwise noted, we used solvent parameters matching tetrahydrofuran (dielectric constant=7.6, probe radius=2.52).
(§5) Vibrational frequency calculations were performed to confirm that all geometries are true minima (no negative eigenmodes of the Hessian) and to compute thermochemical properties such as enthalpy (H), entropy (S), and free energies (G) at 298.15 K. Because librational modes are hindered in solvent media, we corrected our free energies by reducing translational and rotational entropy modes by 50%.

Assay [3] is described as follows: DFT-predicted CO2 binding free energy and charge/bond-order analysis of phosphido-boranes. The procedure: as §1, §2, §3, §4, §5

For “anionic diphenylphosphido-borane [BoPh 4]”, the “CO2 binding observed in experiment” value in assay [1] (listed as LiPh2PBH3) was “binds successfully with the CO2 molecule”; in assay [1] (listed as lithiated anionic phosphido-borane salt), “formation of P—CO2 adducts”. Also, in assay [2], the “reduction of ΔG‡ relative to Na+” value was about 2 kcal/mol. In assay [3] (Li+ distance from the O—BH3 pocket increased by 0.35 Å), the “increase in binding energy on increasing counterion distance” value was “+5.9 kcal”. Also, the “increase of overall ΔG by explicit solvation” value in assay [3] (explicit THF solvation vs continuum) is “+2.9 kcal/mol”.

The values are drawn from patent US20250352981A1, “PHOSPHOROUS BORON-BONDED COMPOUNDS FOR CAPTURING, STORING AND/OR UTILIZING CARBON DIOXIDE AND RELATED PRODUCTS COMPOSITIONS METHODS AND SYSTEMS” (California Institute of Technology, priority 2024, published 2025).
